{"source": "patent US20260108646A1", "about": "“METHOD AND DEVICE FOR DI[…]/OR S[…]” (SCHWING TECHNOLOGIES GMBH, priority 2022, published 2026)", "key": {"[1]": {"system": "human patellar tendon allografts", "details": "in vitro study, human patellar tendon allografts [98]; cited from earlier work"}, "[2]": {"system": "Geobacillus stearothermophilus spores", "assay": "Validation tests for disinfection of laboratory utensils sprinkled with spore suspension SAL 10^6", "type": "cell-based", "details": "for Biological Result #not sterile/#tested: PES in solution 4 %"}, "[3]": {"system": "Geobacillus stearothermophilus spores", "assay": "Validation tests for disinfection of bio-indicator spore strips SAL 10^5", "type": "cell-based", "details": "50-55° C."}}, "data": [{"compound": "CC(=O)OO", "note": "[PES, peracetic acid]", "values": [{"measurement": "cytotoxic and pro-inflammatory effects", "setting": "[1]", "value": "neither cytotoxic nor pro-inflammatory effects"}, {"measurement": "Biological Result #not sterile/#tested", "setting": "[2]; test 5, PES in process chamber 1.9 g/m^3, process duration 120 min", "value": "0/4"}, {"measurement": "Biological Result #not sterile/#tested", "setting": "[2]; test 7, PES in process chamber 1.9 g/m^3, process duration 60 min", "value": "0/4"}, {"measurement": "Biological Result #not sterile/#tested", "setting": "[2]; test 8, PES in process chamber 1.9 g/m^3, process duration 45 min", "value": "0/4"}, {"measurement": "Biological Result #not sterile/#tested", "setting": "[2]; test 12, PES in process chamber 1.9 g/m^3, process duration 15 min", "value": "0/4"}, {"measurement": "Biological Result #not sterile/#tested", "setting": "[2]; test 13, PES in process chamber 1.9 g/m^3, process duration 10 min", "value": "0/4"}, {"measurement": "Biological Result #not sterile/#tested", "setting": "[2]; test 14, PES in process chamber 1.9 g/m^3, process duration 5 min", "value": "0/4"}, {"measurement": "Biological Result #not sterile/#tested", "setting": "[2]; test 15, PES in process chamber 1.7 g/m^3, process duration 20 min", "value": "0/4"}, {"measurement": "Biological Result #not sterile/#tested", "setting": "[2]; test 16, PES in process chamber 1.7 g/m^3, process duration 15 min", "value": "0/4"}, {"measurement": "Biological Result #not sterile/#tested", "setting": "[2]; test 19, PES in process chamber 1.3 g/m^3, process duration 20 min", "value": "0/4"}, {"measurement": "Biological Result #not sterile/#tested", "setting": "[2]; test 20, PES in process chamber 1.3 g/m^3, process duration 15 min", "value": "0/4"}, {"measurement": "Biological Result #not sterile/#tested", "setting": "[2]; test 21, PES in process chamber 0.94 g/m^3, process duration 60 min", "value": "0/4"}, {"measurement": "Biological Result #not sterile/#tested", "setting": "[2]; test 22, PES in process chamber 0.94 g/m^3, process duration 40 min", "value": "0/4"}, {"measurement": "Biological Result #not sterile/#tested", "setting": "[2]; test 23, PES in process chamber 0.94 g/m^3, process duration 30 min, not sterile: pipette", "value": "(pipette) 1/8"}, {"measurement": "Biological Result #not sterile/#tested", "setting": "[2]; test 24, PES in process chamber 0.94 g/m^3, process duration 20 min", "value": "0/8"}, {"measurement": "Biological Result #not sterile/#tested", "setting": "[2]; test 25, PES in process chamber 0.94 g/m^3, process duration 15 min, not sterile: pipette", "value": "(pipette) 1/4"}, {"measurement": "Biological Result #not sterile/#tested", "setting": "[2]; test 26, PES in process chamber 0.94 g/m^3, process duration 10 min", "value": "0/4"}, {"measurement": "Biological Result #not sterile/#tested", "setting": "[2]; test 27, PES in process chamber 0.94 g/m^3, process duration 5 min, not sterile: pipette", "value": "(pipette) 1/4"}, {"measurement": "Biological Result #not sterile/#tested", "setting": "[2]; test 28, PES in process chamber 0.47 g/m^3, process duration 60 min", "value": "0/4"}, {"measurement": "Biological Result #not sterile/#tested", "setting": "[2]; test 29, PES in process chamber 0.47 g/m^3, process duration 30 min", "value": "0/4"}, {"measurement": "Biological Result #not sterile/#tested", "setting": "[2]; test 30, PES in process chamber 0.47 g/m^3, process duration 15 min, not sterile: Eppi", "value": "(Eppi) 1/4"}, {"measurement": "Biological Result #not sterile/#tested", "setting": "[2]; test 31, PES in process chamber 0.47 g/m^3, process duration 10 min, not sterile: pipette", "value": "(pipette) 1/4"}, {"measurement": "Biological Result #not sterile/#tested", "setting": "[2]; test 32, PES in process chamber 0.47 g/m^3, process duration 5 min, not sterile: mask, pipette", "value": "(mask, pipette) 2/4"}, {"measurement": "spore growth after seven days in nutrient solution", "setting": "[2]; various tests, relatively low PES concentration in the process chamber and short process duration", "value": "spore growth was observed after seven days"}, {"measurement": "growth or proliferation of the spores after treatment", "setting": "[3]; all spore strips tested at different PES concentrations and different processing times", "value": "no growth or proliferation of the spores could be detected"}, {"measurement": "Biological Result #not sterile/#tested", "setting": "[3]; test 1, PES in solution 6 %, PES in process chamber 3 g/m^3, process duration 240 min", "value": "0/2"}, {"measurement": "Biological Result #not sterile/#tested", "setting": "[3]; test 2, PES in solution 6 %, PES in process chamber 3 g/m^3, process duration 120 min", "value": "0/1"}, {"measurement": "Biological Result #not sterile/#tested", "setting": "[3]; test 3, PES in solution 6 %, PES in process chamber 1.7 g/m^3, process duration 150 min", "value": "0/2"}, {"measurement": "Biological Result #not sterile/#tested", "setting": "[3]; test 4, PES in solution 4 %, PES in process chamber 2 g/m^3, process duration 120 min", "value": "0/1"}, {"measurement": "Biological Result #not sterile/#tested", "setting": "[3]; test 5, PES in solution 4 %, PES in process chamber 1.9 g/m^3, process duration 120 min", "value": "0/2"}, {"measurement": "Biological Result #not sterile/#tested", "setting": "[3]; test 6, PES in solution 4 %, PES in process chamber 1.9 g/m^3, process duration 90 min", "value": "0/2"}, {"measurement": "Biological Result #not sterile/#tested", "setting": "[3]; test 7, PES in solution 4 %, PES in process chamber 1.9 g/m^3, process duration 60 min", "value": "0/4"}, {"measurement": "Biological Result #not sterile/#tested", "setting": "[3]; test 8, PES in solution 4 %, PES in process chamber 1.9 g/m^3, process duration 45 min", "value": "0/1"}, {"measurement": "Biological Result #not sterile/#tested", "setting": "[3]; test 9, PES in solution 4 %, PES in process chamber 1.9 g/m^3, process duration 40 min", "value": "0/2"}, {"measurement": "Biological Result #not sterile/#tested", "setting": "[3]; test 10, PES in solution 4 %, PES in process chamber 1.9 g/m^3, process duration 30 min", "value": "0/2"}, {"measurement": "Biological Result #not sterile/#tested", "setting": "[3]; test 11, PES in solution 4 %, PES in process chamber 1.9 g/m^3, process duration 20 min", "value": "0/2"}, {"measurement": "Biological Result #not sterile/#tested", "setting": "[3]; test 12, PES in solution 4 %, PES in process chamber 1.9 g/m^3, process duration 15 min", "value": "0/1"}, {"measurement": "Biological Result #not sterile/#tested", "setting": "[3]; test 13, PES in solution 4 %, PES in process chamber 1.9 g/m^3, process duration 10 min", "value": "0/1"}, {"measurement": "Biological Result #not sterile/#tested", "setting": "[3]; test 14, PES in solution 4 %, PES in process chamber 1.9 g/m^3, process duration 5 min", "value": "0/1"}, {"measurement": "Biological Result #not sterile/#tested", "setting": "[3]; test 15, PES in solution 4 %, PES in process chamber 1.7 g/m^3, process duration 20 min", "value": "0/1"}, {"measurement": "Biological Result #not sterile/#tested", "setting": "[3]; test 16, PES in solution 4 %, PES in process chamber 1.7 g/m^3, process duration 15 min", "value": "0/1"}, {"measurement": "Biological Result #not sterile/#tested", "setting": "[3]; test 17, PES in solution 4 %, PES in process chamber 1.5 g/m^3, process duration 240 min", "value": "0/2"}, {"measurement": "Biological Result #not sterile/#tested", "setting": "[3]; test 18, PES in solution 4 %, PES in process chamber 1.5 g/m^3, process duration 150 min", "value": "0/2"}, {"measurement": "Biological Result #not sterile/#tested", "setting": "[3]; test 19, PES in solution 4 %, PES in process chamber 1.3 g/m^3, process duration 20 min", "value": "0/1"}, {"measurement": "Biological Result #not sterile/#tested", "setting": "[3]; test 20, PES in solution 4 %, PES in process chamber 1.3 g/m^3, process duration 15 min", "value": "0/1"}, {"measurement": "Biological Result #not sterile/#tested", "setting": "[3]; test 21, PES in solution 4 %, PES in process chamber 0.94 g/m^3, process duration 60 min", "value": "0/5"}, {"measurement": "Biological Result #not sterile/#tested", "setting": "[3]; test 22, PES in solution 4 %, PES in process chamber 0.94 g/m^3, process duration 40 min", "value": "0/1"}, {"measurement": "Biological Result #not sterile/#tested", "setting": "[3]; test 23, PES in solution 4 %, PES in process chamber 0.94 g/m^3, process duration 30 min", "value": "0/2"}, {"measurement": "Biological Result #not sterile/#tested", "setting": "[3]; test 24, PES in solution 4 %, PES in process chamber 0.94 g/m^3, process duration 20 min", "value": "0/2"}, {"measurement": "Biological Result #not sterile/#tested", "setting": "[3]; test 25, PES in solution 4 %, PES in process chamber 0.94 g/m^3, process duration 15 min", "value": "0/1"}, {"measurement": "Biological Result #not sterile/#tested", "setting": "[3]; test 26, PES in solution 4 %, PES in process chamber 0.94 g/m^3, process duration 10 min", "value": "0/1"}, {"measurement": "Biological Result #not sterile/#tested", "setting": "[3]; test 27, PES in solution 4 %, PES in process chamber 0.94 g/m^3, process duration 5 min", "value": "0/1"}, {"measurement": "Biological Result #not sterile/#tested", "setting": "[3]; test 28, PES in solution 4 %, PES in process chamber 0.47 g/m^3, process duration 60 min", "value": "0/1"}, {"measurement": "Biological Result #not sterile/#tested", "setting": "[3]; test 29, PES in solution 4 %, PES in process chamber 0.47 g/m^3, process duration 30 min", "value": "0/1"}, {"measurement": "Biological Result #not sterile/#tested", "setting": "[3]; test 30, PES in solution 4 %, PES in process chamber 0.47 g/m^3, process duration 15 min", "value": "0/1"}, {"measurement": "Biological Result #not sterile/#tested", "setting": "[3]; test 31, PES in solution 4 %, PES in process chamber 0.47 g/m^3, process duration 10 min", "value": "0/1"}, {"measurement": "Biological Result #not sterile/#tested", "setting": "[3]; test 32, PES in solution 4 %, PES in process chamber 0.47 g/m^3, process duration 5 min", "value": "0/1"}]}]}
